Laboratory results published in the supplement of paper PMC11451515.

How the values were obtained:
Conditions in all cases: 48 h
SEM cells [1] = assay: cell viability relative to DMSO control; higher = less cytotoxic
In short: (§1)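 Viability is a per-plate percentage relative to DMSO wells, with cell-free wells as background. CellTiter-Glo One luminescence was read after 48 h at 37°C on 1536-well plates (5 μl) of NOMO1 or SEM (500 cells/well) or P12-Ichikawa (1000 cells/well) leukemia cells. The cells had been adapted for at least four passages in each medium and pin-dosed with library compounds in DMSO from 47 μM to 0.79 nM in 11 threefold steps.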

P12-Ichikawa [2] = assay: AUC of viability dose-response curve (% viability x log10 dose units); higher = less sensitive
In short: (§2)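 Area under the curve was integrated by trapezoidal rule from a log-logistic fit of normalised viability, with curves exceeding full viability scaled and quality-control failures removed. The fit had four parameters over log10 doses. Viability came from CellTiter-Glo One luminescence, normalised per plate to DMSO and cell-free wells, after leukemia cells adapted to each medium (500 or 1000 cells/well, 1536-well plates) were exposed to library compounds in DMSO for 48 h at 37°C. The 11 threefold doses ran from 47 μM to 0.79 nM.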

NOMO1 [3] = assay: as above
In short: as §2

P12-Ichikawa [4] = assay: cell viability relative to DMSO control; higher = less cytotoxic
In short: as §1

NOMO1 [5] = assay: as above
In short: as §1

SEM cells [6] = assay: AUC of viability dose-response curve (% viability x log10 dose units); higher = less sensitive
In short: as §2

CC1=C(CC/C(C)=C/CCC2=CCC(C3=CC(=O)OC3O)OC2O)C(C)(C)CCC1 (centres undefined)
cell viability [%], SEM cells [1]
Conditions	HPLM + 10% dialyzed FBS	RPMI 5 mM glucose + 10% dialyzed FBS
0.000781 µM	115	121
0.00234 µM	129	124
0.00702 µM	114	119
0.0211 µM	129	112
0.0632 µM	46.6	27.5
0.19 µM	125	132
0.569 µM	138	148
1.71 µM	127	115
5.12 µM	71.4	54
15.4 µM	107	140
46.1 µM	106	129

AUC of viability dose-response curve
Conditions	HPLM + 10% dialyzed FBS	RPMI 5 mM glucose + 10% FBS	RPMI 5 mM glucose + 10% dialyzed FBS
NOMO1 [3]	434	469	466
P12-Ichikawa [2]	457	434	443

CCNc1cc(NC2CCC(O)CC2)nc(Nc2ccc3c(ccn3Cc3ccccc3)c2)n1 (centres undefined)
cell viability [%]
Conditions	NOMO1 [5]	P12-Ichikawa [4]	SEM cells [1]
HPLM + 10% dialyzed FBS, 0.000781 µM	113	112	102
HPLM + 10% dialyzed FBS, 0.00234 µM	121	117	119
HPLM + 10% dialyzed FBS, 0.00702 µM	126	117	129
HPLM + 10% dialyzed FBS, 0.0211 µM	124	126	127
HPLM + 10% dialyzed FBS, 0.0632 µM	147	127	118
HPLM + 10% dialyzed FBS, 0.19 µM	118	128	137
HPLM + 10% dialyzed FBS, 0.569 µM	127	126	124
HPLM + 10% dialyzed FBS, 1.71 µM	139	128	147
HPLM + 10% dialyzed FBS, 5.12 µM	121	124	123
HPLM + 10% dialyzed FBS, 15.4 µM	116	120	117
HPLM + 10% dialyzed FBS, 46.1 µM	120	109	105
RPMI 5 mM glucose + 10% dialyzed FBS, 0.000781 µM	115	–	–
RPMI 5 mM glucose + 10% dialyzed FBS, 0.00234 µM	123	–	–
RPMI 5 mM glucose + 10% dialyzed FBS, 0.00702 µM	124	–	–
RPMI 5 mM glucose + 10% dialyzed FBS, 0.0211 µM	142	–	–
RPMI 5 mM glucose + 10% dialyzed FBS, 0.0632 µM	141	–	–
RPMI 5 mM glucose + 10% dialyzed FBS, 0.19 µM	129	–	–
RPMI 5 mM glucose + 10% dialyzed FBS, 0.569 µM	148	–	–
RPMI 5 mM glucose + 10% dialyzed FBS, 1.71 µM	121	–	–
RPMI 5 mM glucose + 10% dialyzed FBS, 5.12 µM	150	–	–
RPMI 5 mM glucose + 10% dialyzed FBS, 15.4 µM	145	–	–
RPMI 5 mM glucose + 10% dialyzed FBS, 46.1 µM	106	–	–

AUC of viability dose-response curve
Conditions	NOMO1 [3]	P12-Ichikawa [2]	SEM cells [6]
HPLM + 10% dialyzed FBS	471	474	471
RPMI 5 mM glucose + 10% FBS	472	467	471
RPMI 5 mM glucose + 10% dialyzed FBS	464	469	466

Clc1ccccc1CN1CCc2sccc2C1
Conditions	cell viability [%]
P12-Ichikawa [4], HPLM + 10% dialyzed FBS, 0.000781 µM	120
P12-Ichikawa [4], HPLM + 10% dialyzed FBS, 0.00234 µM	121
P12-Ichikawa [4], HPLM + 10% dialyzed FBS, 0.00702 µM	117
P12-Ichikawa [4], HPLM + 10% dialyzed FBS, 0.0211 µM	130
P12-Ichikawa [4], HPLM + 10% dialyzed FBS, 0.0632 µM	129
P12-Ichikawa [4], HPLM + 10% dialyzed FBS, 0.19 µM	132
P12-Ichikawa [4], HPLM + 10% dialyzed FBS, 0.569 µM	129
P12-Ichikawa [4], HPLM + 10% dialyzed FBS, 1.71 µM	59.8
P12-Ichikawa [4], HPLM + 10% dialyzed FBS, 5.12 µM	15.5
P12-Ichikawa [4], HPLM + 10% dialyzed FBS, 15.4 µM	14.4
P12-Ichikawa [4], HPLM + 10% dialyzed FBS, 46.1 µM	16.7
SEM cells [1], RPMI 5 mM glucose + 10% FBS, 0.000781 µM	94.3
SEM cells [1], RPMI 5 mM glucose + 10% FBS, 0.00234 µM	148
SEM cells [1], RPMI 5 mM glucose + 10% FBS, 0.00702 µM	120
SEM cells [1], RPMI 5 mM glucose + 10% FBS, 0.0211 µM	139
SEM cells [1], RPMI 5 mM glucose + 10% FBS, 0.0632 µM	133
SEM cells [1], RPMI 5 mM glucose + 10% FBS, 0.19 µM	152
SEM cells [1], RPMI 5 mM glucose + 10% FBS, 0.569 µM	135
SEM cells [1], RPMI 5 mM glucose + 10% FBS, 1.71 µM	141
SEM cells [1], RPMI 5 mM glucose + 10% FBS, 5.12 µM	144
SEM cells [1], RPMI 5 mM glucose + 10% FBS, 15.4 µM	140
SEM cells [1], RPMI 5 mM glucose + 10% FBS, 46.1 µM	33.3

AUC of viability dose-response curve
Conditions	NOMO1 [3]	P12-Ichikawa [2]	SEM cells [6]
HPLM + 10% dialyzed FBS	323	348	453
RPMI 5 mM glucose + 10% FBS	315	340	459
RPMI 5 mM glucose + 10% dialyzed FBS	322	373	460

COC(=O)/C=C/C(=O)OC
SEM cells [1], HPLM + 10% dialyzed FBS
Conditions	cell viability [%]
0.000781 µM	118
0.00234 µM	126
0.00702 µM	106
0.0211 µM	119
0.0632 µM	135
0.19 µM	135
0.569 µM	126
1.71 µM	124
5.12 µM	60
15.4 µM	43.8
46.1 µM	43.3

AUC of viability dose-response curve
Conditions	NOMO1 [3]	P12-Ichikawa [2]	SEM cells [6]
HPLM + 10% dialyzed FBS	433	323	406
RPMI 5 mM glucose + 10% FBS	402	368	354
RPMI 5 mM glucose + 10% dialyzed FBS	413	352	376

CC(=O)[C@H]1CC[C@H]2[C@@H]3CCC4=CC(=O)CC[C@]4(C)[C@H]3CC[C@]12C
cell viability [%]
Conditions	NOMO1 [5]	P12-Ichikawa [4]	SEM cells [1]
HPLM + 10% dialyzed FBS, 0.000781 µM	110	106	69
HPLM + 10% dialyzed FBS, 0.00234 µM	122	114	83.5
HPLM + 10% dialyzed FBS, 0.00702 µM	140	120	89.4
HPLM + 10% dialyzed FBS, 0.0211 µM	136	112	92.3
HPLM + 10% dialyzed FBS, 0.0632 µM	127	118	82.1
HPLM + 10% dialyzed FBS, 0.19 µM	120	115	102
HPLM + 10% dialyzed FBS, 0.569 µM	123	125	103
HPLM + 10% dialyzed FBS, 1.71 µM	133	118	97
HPLM + 10% dialyzed FBS, 5.12 µM	139	109	88.7
HPLM + 10% dialyzed FBS, 15.4 µM	115	94.7	88.1
HPLM + 10% dialyzed FBS, 46.1 µM	147	110	92.7
RPMI 5 mM glucose + 10% FBS, 0.000781 µM	116	–	98
RPMI 5 mM glucose + 10% FBS, 0.00234 µM	109	–	96.9
RPMI 5 mM glucose + 10% FBS, 0.00702 µM	122	–	102
RPMI 5 mM glucose + 10% FBS, 0.0211 µM	120	–	113
RPMI 5 mM glucose + 10% FBS, 0.0632 µM	116	–	113
RPMI 5 mM glucose + 10% FBS, 0.19 µM	111	–	116
RPMI 5 mM glucose + 10% FBS, 0.569 µM	114	–	120
RPMI 5 mM glucose + 10% FBS, 1.71 µM	123	–	106
RPMI 5 mM glucose + 10% FBS, 5.12 µM	128	–	96.7
RPMI 5 mM glucose + 10% FBS, 15.4 µM	120	–	101
RPMI 5 mM glucose + 10% FBS, 46.1 µM	133	–	92.8
RPMI 5 mM glucose + 10% dialyzed FBS, 0.000781 µM	114	98.1	108
RPMI 5 mM glucose + 10% dialyzed FBS, 0.00234 µM	121	112	92.7
RPMI 5 mM glucose + 10% dialyzed FBS, 0.00702 µM	134	108	103
RPMI 5 mM glucose + 10% dialyzed FBS, 0.0211 µM	134	118	109
RPMI 5 mM glucose + 10% dialyzed FBS, 0.0632 µM	127	120	103
RPMI 5 mM glucose + 10% dialyzed FBS, 0.19 µM	135	125	119
RPMI 5 mM glucose + 10% dialyzed FBS, 0.569 µM	136	120	106
RPMI 5 mM glucose + 10% dialyzed FBS, 1.71 µM	141	116	117
RPMI 5 mM glucose + 10% dialyzed FBS, 5.12 µM	158	105	90.8
RPMI 5 mM glucose + 10% dialyzed FBS, 15.4 µM	140	91.9	81.7
RPMI 5 mM glucose + 10% dialyzed FBS, 46.1 µM	150	114	90.7

AUC of viability dose-response curve
Conditions	NOMO1 [3]	P12-Ichikawa [2]	SEM cells [6]
HPLM + 10% dialyzed FBS	454	465	432
RPMI 5 mM glucose + 10% FBS	447	455	470
RPMI 5 mM glucose + 10% dialyzed FBS	433	465	456
